In the supplement of paper PMC11061612:

Key:
Assay in all cases: combination Emax (second highest fraction inhibited in the dose matrix, 72 h); higher = more inhibition; extreme values may be limits of the assay
GCIY (Gastric Carcinoma) = test system: GCIY (Gastric Carcinoma)
How it was run: (§1)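 Cell lines grown in DMEM/F12 or RPMI with 10% FBS were plated in 1536-well plates and held 24 hours at 37°C, 5% CO2 before 72 hours of exposure to two-drug dose matrices, with DMSO typically at 0.2%. CellTiter-Glo 2.0 luminescence gave viability, which was converted to inhibition. Vehicle wells were set to 0 and blank wells to 1. Combination Emax is the second-highest inhibition in the matrix, and Bliss excess is the observed combination effect minus the expected EA + EB − EA·EB, where EA and EB are the single-agent effects.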

SK-N-DZ (Neuroblastoma) = test system: SK-N-DZ (Neuroblastoma)
How it was run: as §1

[1] = test system: SCC90 (Head and Neck Carcinoma)
How it was run: as §1

[2] = test system: SW1463 (Colorectal Carcinoma)
How it was run: as §1

DK-MG (Glioblastoma) = test system: DK-MG (Glioblastoma)
How it was run: as §1

[3] = test system: NCI-H1048 (Small Cell Lung Carcinoma)
How it was run: as §1

[4] = test system: NCI-H1435 (Non-Small Cell Lung Carcinoma)
How it was run: as §1

[5] = test system: SBC-5 (Small Cell Lung Carcinoma)
How it was run: as §1

[6] = test system: BC-1 (B-Cell Non-Hodgkin's Lymphoma)
How it was run: as §1

[7] = test system: NTERA-2-cl-D1 (Other Solid Carcinomas)
How it was run: as §1

SK-MEL-24 (Melanoma) = test system: SK-MEL-24 (Melanoma)
How it was run: as §1

[8] = test system: MDA-MB-175-VII (Breast Carcinoma)
How it was run: as §1

[9] = test system: C2BBe1 (Colorectal Carcinoma)
How it was run: as §1

[10] = test system: TK (B-Cell Non-Hodgkin's Lymphoma)
How it was run: as §1

[11] = test system: HT-3 (Cervical Carcinoma)
How it was run: as §1

C32 (Melanoma) = test system: C32 (Melanoma)
How it was run: as §1

[12] = test system: NCI-H1975 (Lung Adenocarcinoma)
How it was run: as §1

[13] = test system: OVKATE (Ovarian Carcinoma)
How it was run: as §1

HT-144 (Melanoma) = test system: HT-144 (Melanoma)
How it was run: as §1

SMILES	combination Emax (GCIY (Gastric Carcinoma))	combination Emax (SK-N-DZ (Neuroblastoma))	combination Emax [1]	combination Emax [2]	combination Emax (DK-MG (Glioblastoma))	combination Emax [3]	combination Emax [4]	combination Emax [5]	combination Emax [6]	combination Emax [7]	combination Emax (SK-MEL-24 (Melanoma))	combination Emax [8]	combination Emax [9]	combination Emax [10]	combination Emax [11]	combination Emax (C32 (Melanoma))	combination Emax [12]	combination Emax [13]	combination Emax (HT-144 (Melanoma))
C=CCn1c(=O)c2cnc(Nc3ccc(N4CCN(C)CC4)cc3)nc2n1-c1cccc(C(C)(C)O)n1 [AZD1775] + O=C(c1cc(Cc2n[nH]c(=O)c3ccccc23)ccc1F)N1CCN(C(=O)C2CC2)CC1 [Olaparib] (first compound max 1 µM, partner max 10 µM)	0.568	0.935	0.822	0.521	0.32	0.874	0.296	0.507	0.998	0.914	0.465	0.23	0.335	0.898	0.339	0.438	0.262	0.311	0.606
CCN(CCO)CCCOc1ccc2c(Nc3cc(CC(=O)Nc4cccc(F)c4)[nH]n3)ncnc2c1 [AZD2811] + C=CCn1c(=O)c2cnc(Nc3ccc(N4CCN(C)CC4)cc3)nc2n1-c1cccc(C(C)(C)O)n1 [AZD1775] (first compound max 1 µM, partner max 1 µM)	0.41	0.96	0.752	0.48	0.285	0.859	0.143	0.732	0.989	0.845	0.414	0.205	0.274	0.901	0.241	0.359	0.364	0.233	0.634
CCN(CCO)CCCOc1ccc2c(Nc3cc(CC(=O)Nc4cccc(F)c4)[nH]n3)ncnc2c1 [AZD2811] + C[C@@H]1COCCN1C2=NC(=NC(=C2)C3(CC3)[S@](=N)(=O)C)C4=C5C=CNC5=NC=C4 [AZD6738] (first compound max 1 µM, 7x7, partner max 10 µM)	0.851	0.96	0.353	0.46	0.308	0.804	0.17	0.754	0.921	0.784	0.428	0.384	0.279	0.901	0.694	0.613	0.483	0.344	0.706
CCN(CCO)CCCOc1ccc2c(Nc3cc(CC(=O)Nc4cccc(F)c4)[nH]n3)ncnc2c1 [AZD2811] + O=C(c1cc(Cc2n[nH]c(=O)c3ccccc23)ccc1F)N1CCN(C(=O)C2CC2)CC1 [Olaparib] (first compound max 1 µM, 7x7, partner max 10 µM)	0.427	0.405	0.303	0.226	0.258	0.698	0.196	0.392	0.669	0.65	0.225	0.23	0.131	0.206	0.18	0.232	0.191	0.239	0.309
CN(CCO)CC[C@H](CSc1ccccc1)Nc1ccc(S(=O)(=O)NC(=O)c2ccc(N3CCC([C@@H](O)c4ccccc4-c4ccc(Cl)cc4)CC3)cc2)cc1S(=O)(=O)C(F)(F)F [AZD4320] + C=CCn1c(=O)c2cnc(Nc3ccc(N4CCN(C)CC4)cc3)nc2n1-c1cccc(C(C)(C)O)n1 [AZD1775] (first compound max 1 µM, partner max 1 µM)	0.708	1	0.85	0.468	0.283	1	0.801	0.406	0.999	0.775	0.582	0.32	0.346	1	0.264	0.639	0.562	0.528	0.654
CN(CCO)CC[C@H](CSc1ccccc1)Nc1ccc(S(=O)(=O)NC(=O)c2ccc(N3CCC([C@@H](O)c4ccccc4-c4ccc(Cl)cc4)CC3)cc2)cc1S(=O)(=O)C(F)(F)F [AZD4320] + CN(C)CCCOc1ccc(-c2ccc3ncc4c(c3c2)n(C2CCOCC2)c(=O)n4C)cn1 [AZD0156] (first compound max 1 µM, 7x7, partner max 1 µM)	0.554	0.697	0.496	0.233	0.192	0.622	0.651	0.102	0.17	0.416	0.252	0.224	0.188	0.998	0.143	0.284	0.256	0.29	0.219
CN(CCO)CC[C@H](CSc1ccccc1)Nc1ccc(S(=O)(=O)NC(=O)c2ccc(N3CCC([C@@H](O)c4ccccc4-c4ccc(Cl)cc4)CC3)cc2)cc1S(=O)(=O)C(F)(F)F [AZD4320] + Cn1cnc2c(F)c(Nc3ccc(Br)cc3Cl)c(C(=O)NOCCO)cc21 [Selumetinib] (first compound max 1 µM, 7x7, partner max 3 µM)	0.658	0.827	0.881	0.534	0.336	0.992	0.819	0.245	0.443	0.987	0.761	0.598	0.587	0.987	0.257	0.975	0.417	0.501	0.834
Cc1c2c(nn1C)CSCc1cc(n(C)n1)CSc1cc(c3ccccc3c1)OCCCc1c(C(=O)O)n(C)c3c-2c(Cl)ccc13 [AZD5991] + C1CN(CCC1(C(=O)N[C@@H](CCO)C2=CC=C(C=C2)Cl)N)C3=NC=NC4=C3C=CN4 [Capivasertib] (first compound max 1 µM, 7x7, partner max 3 µM)	0.36	0.182	0.966	0.216	0.86	1	0.179	0.471	1	0.529	0.439	0.488	0.251	0.17	0.307	0.266	0.623	0.273	1
Cc1c2c(nn1C)CSCc1cc(n(C)n1)CSc1cc(c3ccccc3c1)OCCCc1c(C(=O)O)n(C)c3c-2c(Cl)ccc13 [AZD5991] + C=CCn1c(=O)c2cnc(Nc3ccc(N4CCN(C)CC4)cc3)nc2n1-c1cccc(C(C)(C)O)n1 [AZD1775] (first compound max 1 µM, partner max 1 µM)	0.545	0.948	0.952	0.471	0.821	1	0.276	0.694	1	0.82	0.478	0.216	0.341	0.927	0.631	0.568	0.677	0.428	0.969
Cc1c2c(nn1C)CSCc1cc(n(C)n1)CSc1cc(c3ccccc3c1)OCCCc1c(C(=O)O)n(C)c3c-2c(Cl)ccc13 [AZD5991] + CC1(C)CCC(CN2CCN(c3ccc(C(=O)NS(=O)(=O)c4ccc(NCC5CCOCC5)c([N+](=O)[O-])c4)c(Oc4cnc5[nH]ccc5c4)c3)CC2)=C(c2ccc(Cl)cc2)C1 [Venetoclax] (first compound max 1 µM, 7x7, partner max 1 µM)	0.343	0.479	0.934	0.131	0.613	0.954	0.206	0.231	1	0.916	0.336	0.152	0.23	1	0.597	0.626	0.378	0.147	0.955
Cc1c2c(nn1C)CSCc1cc(n(C)n1)CSc1cc(c3ccccc3c1)OCCCc1c(C(=O)O)n(C)c3c-2c(Cl)ccc13 [AZD5991] + CCN(CCO)CCCOc1ccc2c(Nc3cc(CC(=O)Nc4cccc(F)c4)[nH]n3)ncnc2c1 [AZD2811] (first compound max 1 µM, 7x7, partner max 1 µM)	0.449	0.293	0.908	0.268	0.839	1	0.313	0.78	1	0.821	0.362	0.288	0.277	0.289	0.907	0.445	0.485	0.253	0.927
Cc1c2c(nn1C)CSCc1cc(n(C)n1)CSc1cc(c3ccccc3c1)OCCCc1c(C(=O)O)n(C)c3c-2c(Cl)ccc13 [AZD5991] + CN(C)CCCOc1ccc(-c2ccc3ncc4c(c3c2)n(C2CCOCC2)c(=O)n4C)cn1 [AZD0156] (first compound max 1 µM, 7x7, partner max 1 µM)	0.465	0.265	0.904	0.204	0.754	0.984	0.233	0.497	1	0.589	0.232	0.209	0.288	0.313	0.479	0.24	0.599	0.247	0.87
Cc1c2c(nn1C)CSCc1cc(n(C)n1)CSc1cc(c3ccccc3c1)OCCCc1c(C(=O)O)n(C)c3c-2c(Cl)ccc13 [AZD5991] + C[C@@H]1COCCN1C2=NC(=NC(=C2)C3(CC3)[S@](=N)(=O)C)C4=C5C=CNC5=NC=C4 [AZD6738] (first compound max 1 µM, 7x7, partner max 10 µM)	0.808	0.931	0.928	0.506	0.707	1	0.217	0.9	1	0.928	0.549	0.259	0.452	0.895	0.907	0.756	0.664	0.421	0.969
